# Measurements as given in ChEMBL document CHEMBL3108726, “Sorbicatechols A and B, antiviral sorbicillinoids from the marine-derived fungus Penicillium chrysogenum PJX-17” (J Nat Prod, 2014).
# Tested on: Influenza A virus
# Assay: Antiviral activity against Influenza A virus (A/Puerto Rico/8/34(H1N1)) infected in MDCK cells assessed as inhibition of virus-induced cytopathic effect after 48 hrs by crystal violet staining technique
# Format: functional, organism-based
# Details: A/Puerto Rico/8/1934(H1N1)
row,Compound,IC50 [µM]
1,C/C=C/C=C/C(O)=C1/C(=O)[C@]2(C)C(=O)[C@@](C)(O)[C@H]1C[C@@H]2c1ccc(O)c(OC)c1,85
2,C/C=C/C=C/C(O)=C1/C(=O)[C@]2(C)C(=O)[C@@](C)(O)[C@H]1C[C@H]2c1ccc(O)c(OC)c1,113
3,NC(=O)c1ncn([C@@H]2O[C@H](CO)[C@@H](O)[C@H]2O)n1 [RIBAVIRIN],84
